Consider one compound from PMC9145741, “Bioprospecting for Thermozymes and Characterization of a Novel Lipolytic Thermozyme Belonging to the SGNH/GDSL Family of Hydrolases” (International Journal of Molecular Sciences, 2022).

This assay relates to T1, LipB12_A11.
T1 construct: EcoRV fosmid fragment subcloned in pJET1.2, E. coli T7 Express; no tag mentioned; heat step, ammonium sulphate, Superdex 75
Nature of the assay: p-nitrophenol release at […] nm, Michaelis-Menten non-linear regression. In kind it is biochemical. The settings on record: 60 °C, pH 9; 0.002-2 mM substrate.

As usually defined, the Km is the concentration of substrate that gives half-maximal velocity. Take `CCCCCCCCCCCC(=O)Oc1ccc([N+](=O)[O-])cc1` [pNP-laurate]: the Km was found to be 17.3 ± 3.51 µM.
